Measurements taken from PMC7771325 (Journal of medicinal chemistry, 2020).

Assay: Aqueous solubility
Type: physicochemical
Details: resisted cocrystallization attempts

aqueous solubility: low aqueous solubility
Structure (SMILES): Cn1cc(-c2[nH]c3cc(NC(=O)[C@H](N)C4CCCCC4)cc4c3c2C=NNC4=O)cn1 [PF-477736]
